Source: patent US9029531B2 (Agios Pharmaceuticals, Inc., priority 2012, dated 2015)
pIC50: −log10 of the molar value.

Target: T1, glutaminase (GAC) (Homo sapiens, UniProt O94925)
T1 sequence (O94925 55-598 isoform O94925-3 limits assumed): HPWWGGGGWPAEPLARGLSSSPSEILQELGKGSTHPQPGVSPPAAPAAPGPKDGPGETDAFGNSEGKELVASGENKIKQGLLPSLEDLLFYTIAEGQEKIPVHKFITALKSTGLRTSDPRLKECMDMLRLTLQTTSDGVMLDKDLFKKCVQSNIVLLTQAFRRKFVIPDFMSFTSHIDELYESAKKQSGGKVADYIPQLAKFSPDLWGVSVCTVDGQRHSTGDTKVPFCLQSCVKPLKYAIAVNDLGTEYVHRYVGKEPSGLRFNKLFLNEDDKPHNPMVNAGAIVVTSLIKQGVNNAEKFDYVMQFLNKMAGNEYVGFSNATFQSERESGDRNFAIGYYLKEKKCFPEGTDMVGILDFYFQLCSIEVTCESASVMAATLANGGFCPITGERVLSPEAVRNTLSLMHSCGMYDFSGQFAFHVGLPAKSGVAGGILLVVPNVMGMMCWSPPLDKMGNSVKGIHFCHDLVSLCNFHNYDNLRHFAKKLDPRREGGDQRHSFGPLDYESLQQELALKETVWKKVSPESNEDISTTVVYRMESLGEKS
Assay: Glutaminase coupled endpoint enzymatic assay (Example A)
Assay type: biochemical
Settings: inhibition of glutaminase; assay of Example A or Example B
How it was run: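 Endpoint coupled assay: glutamate formed by GAC drives GDH NADH production, recycled by diaphorase reducing resazurin to fluorescent resorufin (Ex544/Em590) after SDS stop. Buffer pH 8.5 with phosphate; glutamine at Km; enzyme preincubated with compound 60 min at room temperature.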

O=C(Cc1c[nH]c2ccccc12)Nc1nnc([C@@H]2CCC[C@H](c3nnc(NC(=O)Cc4c[nH]c5ccccc45)s3)C2)s1 [Compound 23, N,N′-(5,5′-((1S,3R)-cyclohexane-1,3-diyl)bis(1,3,4-thiadiazole-5,2-diyl))bis(2-(1H-indol-3-yl)acetamide)]
pIC50: 6.30 to 7.00
